{"source": "patent US20240180802A1", "about": "“USE OF NEUROSPORENE TO PROTECT THE SKIN FROM THE HARMFUL EFFECTS OF BLUE LIGHT” (DEINOVE, priority 2019, published 2024)", "key": {"[1]": {"tested_on": "HaCaT human keratinocytes", "assay": "Detection of ROSs in keratinocytes under irradiation with blue light", "type": "cell-based", "conditions": "1 h pretreatment, neurosporene 0 to 4 μg/ml or bacterial extract 0 to 15 μg/ml; blue light 460 nm, 150 J/cm2; CellROX deep red; FIGS. 3-4", "method": "(§1) HaCaT human keratinocytes were seeded into 96-well microplates in a proportion of 10 000 cells/well in DMEM medium supplemented with 10% of FCS (fetal calf serum) and incubated at 37° C. in 5% CO2 and 95% humidity for 24 hours. After this period of recovery, the cells were pretreated with either 43 μg/ml of α-tocopherol or with an increasing range of neurosporene (from 0 to 4 μg/ml) or with an increasing range of bacterial extract comprising neurosporene (from 0 to 15 μg/ml) for one hour. At the end of the pretreatment, 5 μM of “CellROX deep red” (a label which becomes fluorescent in the presence of reactive oxygen species (ROS)) and Hoechst (10 μg/ml) (which becomes fluorescent when it is bound to the DNA in the nucleus) were added to the medium. Immediately afterwards, the cells were treated either with UVA radiation (20 J/cm 2), or with a blue light (460 nm, 150 J/cm 2). The cells were then washed three times in 1×DPBS buffer and observed under a fluorescence microscope (CellInsight CX7, ThermoFisher). The fluorescence signals were then analyzed using the HCS Studio software (ThermoFisher) in order to quantify the ROSs produced in the cytosol."}, "[2]": {"tested_on": "HaCaT human keratinocytes", "assay": "Assaying of ATP after irradiation with blue light", "type": "cell-based", "conditions": "24 h pretreatment with dry bacterial extract in DMSO containing 0.05 μg/ml neurosporene; blue light 460 nm, 100 J/cm2; ATP standardized by live cells; FIG. 10", "procedure": "HaCaT human keratinocytes were seeded into 96-well microplates in a proportion of 20 000 cells/well in DMEM supplemented with 10% of fetal calf serum and incubated at 37° C. in 5% CO2 and 95% humidity for 24 hours. After a period of recovery, the cells were pretreated with a dry bacterial extract taken up in DMSO and containing 0.05 μg/ml of neurosporene and a mixture of carotenoids (phytoene, lycopene, zeta-carotene, phytofluene and gamma-carotene), the neurosporene being the major carotenoid of this extract. The cells were incubated at 37° C. in 5% CO2 and 95% humidity for 24 hours. Immediately afterwards, the cells were irradiated with blue light (460 nm, 100 J/cm 2). The cells were then washed three times in 1×PBS buffer and permeabilized with 2% triton at 25° C. for 20 min. The supernatants were then collected in order to quantify the ATP by luminescence (Invitrogen™ ATP Determination Kit, Molecular Probes™). The amount of ATP per well is standardized by the amount of live cells. Each condition was carried out in triplicate."}, "[3]": {"tested_on": "HaCaT human keratinocytes", "assay": "Wound healing test (scratched keratinocyte monolayer)", "type": "cell-based", "conditions": "neurosporene 0.12 μg/ml; FCS-free DMEM; FIG. 6", "procedure": "HaCaT human keratinocytes were seeded into 96-well microplates in a proportion of 33 000 cells/well in DMEM medium supplemented with 10% of FCS and incubated at 37° C. in 5% CO2 and 95% humidity for 24 hours. Once confluence was reached, the cells were washed three times in FCS-free DMEM in order to remove from the wells the growth factors present in the complete medium. The keratinocyte monolayers were then scratched using a “WoundMaker” (Essen Biosciences) which makes it possible to injure cell monolayers in 96-well format. The cells were then washed three times with FCS-free DMEM in order to remove the cell debris. After washing, DMEM medium was added to the wells. EGF (Epidermal growth factor, ng/ml) used as positive control for injury filling or neurosporene (0.12 μg/ml) was added to the wells. The wound healing was observed by phase-contrast microscopy using an “Incucyte ZOOM” (Essen Biosciences), which is an automatic microscope maintained in a CO2 incubator. The images were then processed using the associated software."}, "[4]": {"tested_on": "HaCaT human keratinocytes", "assay": "Detection of ROSs in keratinocytes under irradiation with UVA radiation", "type": "cell-based", "conditions": "1 h pretreatment, neurosporene 0 to 4 μg/ml or bacterial extract 0 to 15 μg/ml; UVA 20 J/cm2; CellROX deep red; FIGS. 1-2", "method": "as §1"}, "[5]": {"assay": "ABTS radical cation reduction test", "type": "physicochemical", "conditions": "5 min at ambient temperature, expressed as α-tocopherol equivalent, FIG. 7", "procedure": "The ABTS test is based on the use of colored cationic radicals. In the presence of a molecule having an antioxidant power, the colored cationic radical is reduced and loses its color. Consequently, the antioxidant power of a molecule can be measured by the decoloration of the radical.\nA solution was prepared by mixing ABTS (7 mM), potassium persulfate (2.45 mM) and water (qs 5 ml) and incubated for 16 hours at ambient temperature in the dark. Next, a range of eight concentrations of neurosporene, lycopene, α-tocopherol, 9Z-β carotene, zeaxanthin, trolox and D-tocotrienol was dispensed into 96-well microplates before adding the ABTS solution prepared above. The microplates were then incubated at ambient temperature for 5 min, and the coloration was then analyzed at 250 nm using a microplate reader."}, "[6]": {"tested_on": "explants of human skin of phototype IV", "assay": "Quantification of the melanin in human skin explants irradiated with blue light", "conditions": "topical refined plant oil with 12.5 ppm neurosporene and 4 ppm other carotenoids, 5 mg/cm2 daily; blue light 447 nm, 202.6 J/cm2; Fontana-Masson staining; p-value<0.01", "procedure": "Explants of human skin of phototype IV were placed under culture conditions. After 24 h, three conditions were studied: a nontreated control, a topical treatment with refined plant oil alone or a topical treatment with a preparation of refined plant oil containing neurosporene (12.5 ppm of neurosporene and 4 ppm of a mixture of carotenoids, namely phytoene, lycopene, zeta-carotene, phytofluene and gamma-carotene). The products were applied every day (5 mg/cm 2) for 3 days. Each condition was carried out in triplicate.\nAfter 3 days of pretreatment, a blue light stress was applied by irradiation at the wavelength of 447 nm each day for 3 days, corresponding to a dose of 202.6 J/cm^2. After each irradiation, the explants were again and, depending on the conditions, not treated or treated either with plant oil alone or with the plant oil containing neurosporene.\nThe melanin was then quantified after analysis of images taken with an epifluorescence microscope (Zeiss, Axio Imager Z1, ApoTome, Zen2 software blue edition) and staining according to the Fontana Masson method. The images were then analyzed on ImageJ. The area of melanin staining was standardized by the length of the basal lamina. The experiment was carried out in triplicate for each condition (nontreated, treatment with vegetable oil alone, treatment with vegetable oil enriched in neurosporene)."}}}
{"smiles": "CC(C)=CCC/C(C)=C/C=C/C(C)=C/C=C/C(C)=C/C=C/C=C(C)/C=C/C=C(\\C)CC/C=C(\\C)CCC=C(C)C", "note": "[neurosporene, 7,8-dihydro-ψ,ψ-carotene]", "values": [{"measurement": "antioxidant power against blue light (ROSs produced in the cytosol)", "setting": "[1]", "value": "strong antioxidant power"}, {"measurement": "effect on intracellular ATP reduction induced by blue light", "setting": "[2]", "value": "makes it possible to limit the ATP reduction induced by blue light"}, {"measurement": "improvement of wound healing (injury filling by cell confluence) compared to nontreated control", "setting": "[3]", "value": 35, "unit": "%"}, {"measurement": "antioxidant power against UVA radiation (ROSs produced in the cytosol)", "setting": "[4]", "value": "strong antioxidant power"}, {"measurement": "antioxidant power relative to reference molecule α-tocopherol", "setting": "[5]", "value": "two times greater"}, {"measurement": "melanin production induced by blue light, change compared to the control exposed without treatment", "setting": "[6]", "value": "−25", "unit": "%"}]}
